From EP4516298A1, “STILBENE COMPOUNDS FOR USE IN THE TREATMENT AND PREVENTION OF INFECTIONS WITH CYTOMEGALOVIRUS (CMV)” (Szekeres, Thomas, priority 2023, dated 2025) come the findings set out here.

Data set [1] relates to HCMV strain AD169. In words: Functional plaque reduction assay in HFF infected with human CMV. The class given is cell-based. Particulars: for inhibition of CMV replication: plaque reduction assays in HFF treated with decreasing concentrations (Fig. 1-4). As to the method: For the plaque reduction assay, HFF were seeded to 100 % confluency and then pre-treated with compound M8 at 8 different concentrations. HFF were subsequently infected with CMV strain AD169, washed and again incubated with two-fold dilutions of the compound. All experiments were done in triplicates (arrow bars show SEM). […] For the plaque reduction assay, HFF were seeded to 100 % confluency. The virus preparation of CMV strain AD169 was pretreated before infection of cells with compound M8 at 8 different concentrations. HFF were subsequently infected with CMV strain AD169, washed and again incubated with two-fold dilutions of the compound. All experiments were done in triplicates (arrow bars show SEM). […] For the plaque reduction assay HFF were seeded to 100 % confluency and subsequently infected with CMV strain AD169. Cells were washed thereafter and incubated with two-fold dilutions of the compound GCV. All experiments were done in triplicates (arrow bars show SEM). […] For the plaque reduction assay HFF were seeded to 100 % confluency and then pre-treated with compound RES at 8 different concentrations. HFF were subsequently infected with CMV strain AD169, washed and again incubated with two-fold dilutions of the compound. All experiments were done in triplicates (arrow bars show SEM).
HCMV strain AD169 was prepared as described previously (Rieder et al., J. Gen. Virol. 98 (2017), 471-485). For virus production, HFF were grown to confluence and subsequently infected with HCMV AD169 at a multiplicity of infection (MOI) of 0.01. The viral inoculum was replaced by culture medium after 90 min. Upon visibility of a total cytopathic effect (CPE) (usually 8-10 days post-infection), the viral supernatant was harvested and stored at - 80°C. After thawing, cell debris was removed by centrifugation at 3,000 g for 20 min. Infectivity of the viral inoculum was then measured using a plaque assay as described elsewhere (Britt, Curr. Protoc. Microbiol. (2010), 14E.3). […] Ganciclovir (Merck Millipore) was added at the indicated concentrations after removal of the inoculum. The cells were then overlaid with growth medium containing 0.5% low-melting point agarose. After solidification of the agarose layer, the plates were incubated for 10 days at 37°C in a CO2 incubator, then fixed with 2% formaldehyde and analysed for number of plaques after staining with 1:5 diluted Mayer's Hemalaun. Plaque numbers were normalized to the mean of DMSO-treated control samples. IC50 values were calculated with Graphpad Prism (dose-response inhibition).
(In general: In a plaque reduction assay, fewer plaques than in the control indicate reduced infectivity or spread.)

Data set [2] relates to HFF. Put plainly: Toxicity of the compounds to HFF (inhibition of cellular metabolism). The data set is classed as cell-based, human.
Setting [3] is: treatment of HFF after CMV infection, CMV strain AD169.
The mark [4] stands for this setting: Human betaherpesvirus 5, AD169, cells (HFF) pretreated with compound for 90 min, CMV strain AD169, plaques counted after 10 days.
Setting [5] is: cells (HFF) pretreated with compound, CMV strain AD169.
[6] abbreviates: virus pretreated with compound, CMV strain AD169.

The structures appear in SMILES notation.

In the case of `Nc1nc(O)c2ncn(COC(CO)CO)c2n1` [GCV, Ganciclovir, reference compound], in data set [1], the “inhibition of CMV replication” value is listed as “significant inhibition”. In addition, in data set [1] (setting [3]), the “concentration of complete inhibition” value is reported as ≥ 5 µM and the “concentration of initial inhibitory effect” value came out at 0.156 µM.
As a reminder, the IC50 is the concentration needed to halve the response being measured. As to `Oc1cc(/C=C/c2cc(O)c(O)c(O)c2)cc(O)c1O` [M8, 3,3',4,4',5,5'-hexahydroxy-trans-stilbene], the “concentration found to be toxic to the HFF” value in data set [2] is on record as > 100 µM. Besides, the IC50 in data set [1] (setting [4]) is ~37.5 µM. In addition, in data set [1] (Human betaherpesvirus 5, AD169, virus pretreated with compound for 90 min before infection of HFF, CMV strain AD169), the IC50 was ~3 µM. Further, in data set [1] (setting [5]), the “concentration at which some inhibition of CMV was noted” value came out at 12.5 µM and the “concentration of complete inhibition of CMV” value is on record as 100 µM. In data set [1], the “inhibition of CMV replication” value is on record as “significant inhibition”. In addition, in data set [1] (setting [6]), the “concentration at which inhibition was noticed” value is 6.25 µM and the “concentration of maximum inhibition” value was found to be 25 µM.
In the case of `Oc1ccc(C=Cc2cc(O)cc(O)c2)cc1` [RES, resveratrol, reference compound], the “concentration found to be toxic to the HFF” value in data set [2] was > 100 µM. Also, in data set [1] (setting [4]), the IC50 is ~100 µM. In addition, the “concentration at which some inhibition of CMV was noted” value in data set [1] (setting [5]) amounted to 6.25 µM. The “inhibition of CMV replication” value in data set [1] is reported as “significant inhibition”.
